Source: US9581598B2, “Diagnosis and treatment of brain tumor” (Sanford-Burnham Medical Research Institute, priority 2012, dated 2017)
Entries after “also recorded” stand apart in the source; their conditions may differ. Where a SMILES comes first, the peptide text is derived from it. The star is where a group is joined. DTPA(central) = O=C(O)CN(CCN(CCN(CC(=O)O)CC(=O)O)CC(=O)*)CC(=O)O; FITC = O=C1OC2(c3ccc(O)cc3Oc3cc(O)ccc32)c2ccc(NC(=S)*)cc21

Tests used:
[1] = system: MDGI-expressing MDA-MB-231 xenografts; assay: homing of fluorescein-labeled peptide after i.v. injection; type: in vivo, mice
Protocol: (§1) Intravenously injected fluorescein-labeled peptides (100 μl of 1 mM solution) and antibodies (20 μg/animal) were allowed to circulate for one hour followed by perfusion through the heart with 10 ml of phosphate buffered saline (PBS) and 10 ml of 4% paraformaldehyde (PFA) in PBS. Tumors and organs were excised, PFA-fixed and soaked in 30% sucrose (w/v) overnight. Tissues were frozen in the OCT embedding medium (Tissue-Tek). Sections (5-10 μm) were cut for histological analyses. To detect the in vivo distribution of the fluorescein-labeled peptides, sections were stained with a rabbit anti-FITC antibody (Zymed Laboratories, San Francisco, USA). To visualize blood vessels, MDGI and tumor cells, sections were stained with the rat anti-mouse CD31 (BD Pharmingen), goat or rabbit anti-MDGI (Santa Cruz Biotechnology, USA), or a rabbit anti-SV40 large T antigen (a kind gift from Dr. Hanahan, ISREC, Switzerland) antibodies followed by the Alexa-594 and Alexa-488 conjugated secondary antibodies (Molecular Probes, Eugene, Oreg., USA). Nuclei were visualized with DAPI (Vector Laboratories, Burlingame). Sections were examined under an inverted fluorescence microscope (Axioplan).
To obtain an MDA-MB-231 breast tumor cell line stably expressing the MDGI as a c-Myc fusion protein, cells were transfected with the pcDNA3-9E10-MDGI plasmid as described herein. […]

[2] = system: astrocytomas overexpressing VEGF; assay: as above; type: in vivo, mice; conditions: angiogenic vessels
Protocol: (§2) Athymic female Balb/c nu-nu mice (4-6 wks) from Taconic Europe were used in all tumor experiments. Establishment of the intracranial tumors has been described (Blouw et al., 2003). In brief, 50 000 HIFko, VEGF+, U87MG, U87-GFP, U87-MDGI-GFP or BT4C tumor cells in phosphate buffered saline (PBS) or DMEM were injected through the skull using a Hamilton syringe (no 84855), 2 mm right from the bregma at the depth of 3 mm in the brain parenchyma. Mice were used for some experiments 10-15 days after tumor cell inoculation. In experiments studying the role of MDGI in tumor progression and invasiveness, mice were used 10-21 days after tumor cell inoculation. To establish subcutaneous tumors, 2-5×10^6 cells were grafted subcutaneously on the abdominal side of the mice (in some experiments) or into the mammary fat pad, in other experiments. All animal studies were conducted according to the guidelines of the Provincial Government of Southern Finland and the protocol was approved by the Experimental Animal Committee.
as §1

[3] = system: orthotopic MDA-MB-231 human breast cancer xenografts; assay: as above; type: in vivo, mice; conditions: intravenous injection; parental MDA-MB-231
Protocol: as §2, §1

[4] = system: rat BT4C glioma xenografts; assay: as above; type: in vivo, mice; conditions: intravenous injection
Protocol: as §2, §1

[5] = system: intracranial U87MG human glioma xenografts; assay: as above; type: in vivo, mice; conditions: intravenous injection
Protocol: as §2, §1

[6] = system: tumors established from the HIFko cells implanted subcutaneously; assay: as above; type: in vivo, mice; conditions: subcutaneous HIFko tumors
Protocol: as §2, §1

[7] = system: i.c. U87MG tumor; design: species or system mice; conditions: mouse, in vivo
Protocol: The DTPA conjugated peptides (20 μg per animal) were mixed with 0.2 M NaAc (pH 5) and 5 MBq of ^111Indiumchloride (^111InCl3, Mallinckrodt, Le Petten, Netherlands) per animal was added to the mixture. The total volume of the solution was calculated to be 100 μl/animal. The reaction mixture was incubated for an hour at RT and the radiochemical purity was measured by using an instant thin-layer chromatography (ITLC-SG, Pall Corporation, USA) on a 13×1.5 cm strip using 0.3 M NaCit (pH 5) as a mobile phase. The radiochemical purity of the peptides was 99-100%.
The imaging studies were performed two weeks post U87MG tumor implantation. For SPECT/CT (single photon emission computed tomography-computed tomography) imaging animals were anesthetized with 1-3% isoflurane in N2/O2 at a 70:30 ratio. The radiolabeled peptide (100 μl) was injected into the tail vein followed by SPECT imaging using a combined small animal SPECT/CT (Gamma Medica Inc., Northridge, Calif.) with dual gamma camera modality. Medium energy parallel hole collimators were used in all gamma imaging with a 171/245/[…] keV energy window for ^111In. Planar two-dimensional imaging for all animals was performed at earliest possible time point after injection with 60 s acquisition time/image up to 30 minutes. For 3D imaging total of 64 projections, (120 s/projection) were used. The matrix size was 80×80 in 125×125 mm^2 field of view (FOV). […]
After the last imaging session animals were sacrificed with CO2 and tissue samples were collected. Major organs and tissues (blood, heart, lungs, liver, spleen, left kidney, duodenum, ovaries, fat, muscle, skin, brain and brain tumor) were weighed, and the radioactivity in each organ or tissue sample was measured in an automated gamma counter (Clinigamma, Turku, Finland). The counts obtained were corrected for the background radiation and physical decay, and tissue radioactivity was expressed as percentage of the injected dose per gram of tissue (% ID/g)±SD.

[8] = system: HifKO murine astrocytoma cells; assay: targeted treatment of tumor bearing mice; type: in vivo; conditions: day 14
Protocol: Immunocompromised (Balb/c nu/nu) mice were implanted with HifKO murine astrocytoma cells (Blouw et al. 2003). Treatment with saline (PBS), free chlorambusil (Cbl) and targeted drug (chlorambusil conjugated to CooP peptide; CooP—CPP-Cbl, 5 mg/kg) was started at day 5 post-implantation and continued every second day until day 14.

[9] = system: i.c HIFko astrocytoma; assay: tissue localization of fluorescein-labeled peptide after i.v. injection; type: in vivo, mice
Protocol: as §2
Intravenously injected fluorescein-labeled peptides ([…]) and antibodies (20 μg/animal) were allowed to circulate for one hour followed by perfusion through the heart with 10 ml of phosphate buffered saline (PBS) and 10 ml of 4% paraformaldehyde (PFA) in PBS. Tumors and organs were excised, PFA-fixed and soaked in 30% sucrose (w/v) overnight. Tissues were frozen in the OCT embedding medium (Tissue-Tek). Sections (5-10 μm) were cut for histological analyses. To detect the in vivo distribution of the fluorescein-labeled peptides, sections were stained with a rabbit anti-FITC antibody (Zymed Laboratories, San Francisco, USA). […] Sections were examined under an inverted fluorescence microscope (Axioplan).

NH2-ACGLSGLGVA-CONH2 (H-ACGLSGLGVA-NH2) [CooP peptide, core …]
homing to tumor [1]: homed with high efficiency
homing to tumor [2]: did not home
peptide detected in tumor [3]: No CooP peptide was detected; also recorded: only negligible amount of the peptide was detected
homing to tumor [4]: to a lesser yet detectable extent
homing to tumor [5]: homed efficiently
homing to tumor [6]: did not home

CC(C)C[C@H](NC(=O)[C@H](C)NC(=O)[C@H](C)NC(=O)[C@@H](NC(=O)[C@H](CS)NC(=O)[C@H](C)NC(=O)CN(CCN(CC(=O)O)CC(=O)O)CCN(CC(=O)O)CC(=O)O)C(C)C)C(=O)N[C@@H](CC(N)=O)C(=O)N[C@@H](C)C(=O)N[C@@H](CC(=O)O)C(=O)NCC(N)=O [^111In-labeled control peptide, NH2-ACVAALNADG-CONH2, metal not drawn, reference compound]
accumulation in the tumor tissue [7]: No accumulation

CC(C)C[C@H](NC(=O)CNC(=O)[C@H](CO)NC(=O)[C@H](CC(C)C)NC(=O)CNC(=O)[C@H](CS)NC(=O)[C@H](C)NC(=O)CN(CCN(CC(=O)O)CC(=O)O)CCN(CC(=O)O)CC(=O)O)C(=O)NCC(=O)N[C@H](C(=O)N[C@@H](C)C(N)=O)C(C)C [^111In-CooP, metal not drawn] ({DTPA(central)}-ACGLSGLGVA-NH2)
tumor half to healthy brain half ratio [7]: up to 20:1
plasma clearance ([7]; iv, 20 ug): rapid

O=C(O)CCCc1ccc(N(CCCl)CCCl)cc1 [chlorambusil]
condition of the animals at end of experiment [8]: poor condition of the animals

FITC-CooP: synthetic CooP peptide conjugated to fluorescein (Ac-K(FITC)ACGLSGLGVA-NH2)
peptide localization in tumor ([9]; 100 μM, 100 μl/animal i.v., 60 minutes circulation): accumulated in the tumor islets in the brain
peptide-derived fluorescence in the kidneys and the choroid plexus ([9]; i.v.): Some peptide-derived fluorescence was observed
peptide in surrounding histologically normal brain or other tissues ([9]; i.v., 60 minutes circulation): not detected
